Patent US20070270349A1, “Glutathione Derivatives and Their Uses for the Treatment of Viral Diseases” (priority 2003, published 2007)

Key:
erythrocytes (RBCs) = experiment: Entry into erythrocytes, oil-stop method; type: in vitro ADME; settings: calculated in the first 30 minutes, 37° C., 10% hematocrit
Description: The entry of GSH and GSH-C4 into erythrocytes (RBCs) at 37° C. in microcentrifugal test-tubes was measured using the oil-stop method. […] A Manual of Biochemical Methods, 3rd edn. Grune & Stratton, New York).

Sendai virus = Sendai virus replication in MDCK cells, hemagglutinating activity in supernatant; type: cell-based; settings: for EC50 / inhibition at 5000 µM: Respirovirus muris; for EC50: 48 h, MDCK cells, read-out: 50% of inhibition of viral reproduction (EC50); for inhibition at 5000 µM: MDCK, 5 mM
Description: To measure the behavior of GSH-C4 derivatives in infected cells, Madin Darby canine kidney cells (MDCK) were grown in RPMI 1640 to which 5% of heat-decomplemented bovine fetal serum (Flow Laboratories, Italy) was added.
(§1) The Senday virus (SV) belonging to the Paramyxovirus family is a virus with non-segmented single stranded RNA of negative polarity. This virus was reproduced by inoculation in the allantoic liquid of embryonated chicken eggs. The monolayers of MDCK cells were infected with SV [3 hemagglutinating units (HAU)×10^5 cells]. After incubation for 1 hour at 37° C. (adsorption period), the unadsorbed viruses were removed, the monolayers were washed and then incubated in a complete medium containing 2% of bovine fetal serum. The production of viruses by infected cells was determined in the cellular supernatants at different intervals of time from infection (p.i.), measuring the hemagglutinating activity towards type 0 Rh+ human erythrocytes (HAU), according to standard procedures. […] Monkey kidney cells (VERO) were grown in RPMI, to which 5% of serum was added. The human herpes simplex virus type 1 (HSV-1), clinically isolated (TV1), was grown and titered in the Vero cells as described in Palamara, A. T., Perno, C. F., Ciriolo, M. R., Dini, L., Balestra, E., D'Agostini, C. et al. (1995). […] Antiviral Research 27, 237-253.
MDCK cells were infected for 1 hour with 3 hemagglutinating units (HAU)×10^5 cells. The cells were washed and then cultivated in the presence of different concentrations of GSH-C4 (range 0-7.5 mM) for 2 days. Production of the virus was assayed at 24 hours (panel A) and 48 hours (panel B) measuring the hemagglutinating activity on type 0 Rh+ human erythrocytes.

HSV-1 = HSV-1 replication in Vero cells, plaque assay; type: cell-based, human herpes simplex virus type 1
Description: as §1
(§2) To obtain the viral infection, monolayers of Vero cells were infected with HSV-1 at a MOI (multiplicity of infection) of 0.03 PFU/cell. After incubation for 1 hour at 37° C. (adsorption period) the unadsorbed viruses were removed, the monolayers were washed and then incubated with culture medium containing 2% bovine fetal serum. GSH-C4 was added in identical doses to the ones indicated above immediately after the adsorption period and was maintained in the culture medium until completion of the experiments. Supernatants from infected cells were collected at different times after contact with the virus and tested for the ability to form plaques in Vero cells, using a standard titration method. Similar experiments were also conducted on HSV-1 TK-D305.
Vero cells were infected for 1 hour with HSV-1 at a MOI of 0.03 PFU/cell. After repeated washings, GSH-C4 was added at different concentrations (range 0-10 mM) to the cell cultures. Replication of the viruses was tested in the Vero cells 48 h after infection using the plaque technique.

[1] = system: uninfected Madin Darby canine kidney cells (MDKC); experiment: Toxicity on confluent monolayers of uninfected MDCK cells (morphology, Trypan blue vitality, cell count); type: cell-based; settings: for toxic effect or change in cell morphology: uninfected MDCK monolayers, concentrations used in the experiments
Description: The toxicity was measured on the basis of microscopic examinations of cellular morphology, of measurement of cellular vitality after staining with Trypan blue and of the cell count. All compounds were diluted in RPMI, the final pH of the solution was approximately 7-7.3.

[2] = target: T1, glutathione peroxidase (E.C.1.11.1.9.) (Homo sapiens, UniProt P07203); experiment: Glutathione peroxidase activity in hemolyzed human blood with GSH or GSH-C4 as substrate; type: biochemical; settings: 2 mM substrate
T1 construct: measured in hemolyzed human blood; from tissue; host or cells: hemolyzed human blood
T1 sequence (P07203 1-203): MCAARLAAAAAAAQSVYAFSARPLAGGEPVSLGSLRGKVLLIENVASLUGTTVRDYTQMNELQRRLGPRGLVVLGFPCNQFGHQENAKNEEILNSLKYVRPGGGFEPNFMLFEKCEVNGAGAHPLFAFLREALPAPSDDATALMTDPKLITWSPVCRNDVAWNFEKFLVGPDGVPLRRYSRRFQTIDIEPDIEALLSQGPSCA
Description: (§3) Enzymatic determinations of the activity of glutathione peroxidase (E.C.1.11.1.9.) and glutathione S-transferase (E.C.2.5.1.18.) in hemolyzed human blood in the presence of GSH and of its derivative GSH-C4 were carried out according to the methods of Beutler (Beutler, E., 1984, Red Cell Metabolism. A Manual of Biochemical Methods, 3rd edn. Grune & Stratton, New York). GSH and GSH-C4 were then oxidized by incubation at ambient temperature in the presence of 35% (v/v) H2O2 to respectively obtain GSSG and C4-GSSG-C4.
(§4) The enzymatic activities of glutathione peroxydase and glutathione S-transferase were measured in hemolyzed human blood in the presence of GSH-C4 or GSH 2 mM as substrates. […] Moreover, GSH and GSH-C4 were chemically oxidized in the corresponding disulphide forms (GSSG and C4-GSSG-C4).

[3] = system: glutathione S-transferase (E.C.2.5.1.18.); experiment: Glutathione S-transferase activity in hemolyzed human blood with GSH or GSH-C4 as substrate; type: biochemical; settings: 2 mM substrate
Description: as §3, §4

HSV-1 TK− = experiment: HSV-1 TK- (Δ305) replication in Vero cells, plaque forming units; type: cell-based, human herpes simplex virus type 1
Description: as §2
Vero cells were infected for 1 h at 37° C. with the strain Δ305 and then kept in culture in the presence of different concentrations of GSH-C4. The production of viruses was measured 24, 48 and 72 h after infection by assay of the plaque forming units.

uninfected Vero cells = experiment: Toxic effects in uninfected Vero cells; type: cell-based, Monkey

N[C@@H](CCC(=O)N[C@@H](CS)C(=O)NCC(=O)O)C(=O)O [GSH, γ-glutamylcysteinylglycine, reference compound]
entry speed into erythrocytes (erythrocytes (RBCs)): 2.33 nmol/min/ml RBCs
EC50 (Sendai virus): 7.6 mM
complete inhibition of the virus (HSV-1; 10 mM): does not induce complete inhibition of the virus
reduction in virus replication (HSV-1; 10 mM): around 2.5 log

CCCC(=O)N[C@@H](CCC(=O)N[C@@H](CS)C(=O)NCC(=O)O)C(=O)O [GSH-C4, n-butanoyl γ-glutamylcysteinylglycine]
toxicity for the cells, microscopic examination of the monolayers ([1]; 7.5 mM, MDCK monolayers of the Sendai experiment): without being toxic for the cells
toxic effect or change in cell morphology [1]: do not induce any toxic effect or change in cell morphology
glutathione peroxydase activity compared to that in the presence of GSH [2]: 1.8%
glutathione S-transferase activity compared to that in the presence of GSH [3]: 3.5%
entry speed into erythrocytes (erythrocytes (RBCs)): 4.33 nmol/min/ml RBCs
virus in the supernatant of treated cells (Sendai virus; 7.5 mM): no viruses were found
inhibition at 5000 µM (Sendai virus; 24 h p.i.): 88%
inhibition at 5000 µM (Sendai virus; 48 h p.i.): 93%
EC50 (Sendai virus): 3.6 mM
virus particles in the cellular supernatant (HSV-1; 10 mM, 48 h after infection): no virus particles were detected
inhibition of virus replication 72 h after infection (HSV-1; 72 h after infection): same inhibition
protection from cytopathic effects induced by the virus (HSV-1; HSV-1 infected Vero cells): protects the Vero cells from the cytopathic effects induced by the virus
inhibition at 7500 µM (HSV-1; Human alphaherpesvirus 1, Vero, 48 h, read-out: inhibition of viral replication compared to the control): 60%
activity against the strain TK− compared with the wild type strain (HSV-1 TK−): less active
HSV-1 TK− titer (HSV-1 TK−; 5 mM, 24 h): 2.59 × 10^5 pfu/ml
HSV-1 TK− titer (HSV-1 TK−; 5 mM, 48 h): 2.42 × 10^6 pfu/ml
HSV-1 TK− titer (HSV-1 TK−; 5 mM, 72 h): 2.13 × 10^6 pfu/ml
HSV-1 TK− titer (HSV-1 TK−; 7.5 mM, 24 h): 1.59 × 10^5 pfu/ml
HSV-1 TK− titer (HSV-1 TK−; 7.5 mM, 48 h): 2.56 × 10^5 pfu/ml
HSV-1 TK− titer (HSV-1 TK−; 7.5 mM, 72 h): 4.33 × 10^5 pfu/ml
inhibition of virus titer (HSV-1 TK−; 7.5 mM, 72 h after infection): approximately 1 log
HSV-1 TK− titer (HSV-1 TK−; 10 mM, 24 h): 1.53 × 10^5 pfu/ml
HSV-1 TK− titer (HSV-1 TK−; 10 mM, 48 h): 2.6 × 10^5 pfu/ml
HSV-1 TK− titer (HSV-1 TK−; 10 mM, 72 h): 3.44 × 10^5 pfu/ml
toxic effects in uninfected Vero cells (uninfected Vero cells): does not induce any toxic effects

CCCCCCCC(=O)NC(CCC(=O)NC(CS)C(=O)NCC(=O)O)C(=O)O (stereo not drawn) [GSH-C8]
toxic effect or change in cell morphology [1]: marked toxic effects
